Source: patent US20150342234A1, “Steviol Glycoside Compositions Sensory Properties” (Evolva SA, priority 2012, published 2015)

How the values were obtained:
[1] = system: panel of 9 tasters (8 trained sensory panellists and 1 Evolve employee); test: Sensory evaluation by rapid profiling protocol, blinded samples, two replicates; format: in vivo; conditions: for Sweetness build Fl. mean score / Sweetness onset Fl. mean score: after 1st sip, mean of Rep 1 and Rep 2, 0.0385% w/v in mineral water; for Sweetness build Fl. mean score / Sweetness onset Fl. mean score / Acid At. mean score / Artificial sweetness At. mean score / Bitter At. mean score / Overall Sweetness At. mean score / liquorice At. mean score / Acid Fl. mean score / Artificial sweetness Fl. mean score / Bitter Fl. mean score / Liquorice FL mean score / Overall Sweetness Fl. mean score / Body/ thickness Mf. mean score / Mouth coating Mf. mean score / Mouth drying Mf. mean score / Mouth watering Mf. mean score / Tingling Mf. mean score: 0-100 scale; for Acid At. mean score / Artificial sweetness At. mean score / Bitter At. mean score / Overall Sweetness At. mean score / liquorice At. mean score: aftertaste; for Acid At. mean score / Artificial sweetness At. mean score / Bitter At. mean score / Overall Sweetness At. mean score / liquorice At. mean score / Acid Fl. mean score / Artificial sweetness Fl. mean score / Bitter Fl. mean score / Liquorice FL mean score / Overall Sweetness Fl. mean score / Body/ thickness Mf. mean score / Mouth coating Mf. mean score / Mouth drying Mf. mean score / Mouth watering Mf. mean score / Tingling Mf. mean score: mean of 2 replicates, 0.0385% w/v; for Acid Fl. mean score / Artificial sweetness Fl. mean score / Bitter Fl. mean score / Liquorice FL mean score / Overall Sweetness Fl. mean score: flavor; for Acid Fl. mean score / Artificial sweetness Fl. mean score / Bitter Fl. mean score / Liquorice FL mean score / Overall Sweetness Fl. mean score / Body/ thickness Mf. mean score: after second and third sip; for Body/ thickness Mf. mean score / Mouth coating Mf. mean score / Mouth drying Mf. mean score / Mouth watering Mf. mean score / Tingling Mf. mean score: mouthfeel
Procedure: (§1) A sensory evaluation of the sample isolated in Example 5 was conducted by a commercial consumer research and sensory analysis company, using a rapid profiling protocol. The sensory profile of the yeast fermented Reb A product was compared to that of a commercially available RebA product by a panel of 9 tasters (8 trained sensory panellists and 1 Evolve employee), over a two hour period. […] Both products were dissolved in Highland Springs bottled mineral water (Highland Spring Group, Blackford, Pertishire, United Kingdom) at 0.0385% w/v, which is approximately equivalent in sweetness to 8% sucrose.
After a break, the panelists were presented one blinded sample of the yeast-derived RebA solution and one blinded sample of the commercial RebA solution. Sample were presented in a balanced order to the panelists. For each blinded sample, panelists carried out the following tasting procedure. Panelists were instructed take one sip of the sample and score the Sweetness Build and Sweetness Onset attributes. A second and third sip of the sample were then taken, and panelists were instructed to score Flavor Attributes and Mouth Feel attribute Body/thickness. Each panelist then took a final sip of the sample and was asked to score Aftertaste and Mouth Sensations at 20 seconds and 120 seconds after the final sip.
All panellist scores were entered into a computer using Compusense® data collection software (Compusense, Guelph, Ontario, Canada). Agreed reference scores were marked on the scales as a guide. A rest period of 5 minutes duration was observed between samples and palate cleansers of Carr's® water crackers (Kellogg's, Battle Creek, Mich.) and Highland Spring bottled mineral water applied during this time.
After one replicate of testing had been completed, panelists discussed differences between products. Panelists thought there were some subtle differences between products but no new flavors, off flavors, or mouth sensations were experienced. It was therefore decided to carry out a second replicate testing of the two Reb A samples using the same vocabulary and different blinding codes. The same tasting procedure was used for the second replicate as that used for the first replicate.
Mean scores were calculated for each attribute and sample over the two replicates (Rep 1 and Rep 2). Table 16 provides the mean scores for each attribute. Scores in bold shown a statistically significant difference between the two RebA samples.

[2] = system: panel of 9 tasters (8 trained sensory panellists and 1 Evolve employee); test: Agreed reference intensity scores for the commercial Reb A reference sample (vocabulary determination); format: in vivo; conditions: agreed approximate intensity score, 0-100 scale; 0.0385% w/v
Procedure: as §1
An appropriate vocabulary was determined using the commercial Reb A solution as a reference sample. As a starting point, the panel used an attribute vocabulary agreed to for previous sweetener sensory analyses, including sweetness onset time, sweetness build, sweetness, bitterness, etc. Panelists discussed and agreed which of the attributes were present in the reference sample and also agreed on approximate intensity scores on a 0-100 scale for each attribute. Table 15 describes each characteristic that was assessed and how each characteristic was scored for the reference sample.

[3] = first block (20 seconds after final sip)
[4] = second block (120 seconds after final sip)

C=C1C[C@@]23CC[C@H]4[C@@](C)(CCC[C@@]4(C)C(=O)O[C@@H]4O[C@H](CO)[C@@H](O)[C@H](O)[C@H]4O)[C@@H]2CC[C@]1(O[C@@H]1O[C@H](CO)[C@@H](O)[C@H](O[C@@H]2O[C@H](CO)[C@@H](O)[C@H](O)[C@H]2O)[C@H]1O[C@@H]1O[C@H](CO)[C@@H](O)[C@H](O)[C@H]1O)C3 [Commercial RebA, rebaudioside A]
Sweetness build Fl. mean score [1]: 34.5 | Sweetness onset Fl. mean score [1]: 5.6 | Acid At. mean score [1, 3]: 8.5 | Artificial sweetness At. mean score [1, 3]: 40.8 | Bitter At. mean score [1, 3]: 22.1 | Overall Sweetness At. mean score [1, 3]: 52.8 | liquorice At. mean score [1, 3]: 21.1 | Acid At. mean score [1, 4]: 8.9 | Artificial sweetness At. mean score [1, 4]: 32.6 | Bitter At. mean score [1, 4]: 20.6 | Overall Sweetness At. mean score [1, 4]: 49.6 | liquorice At. mean score [1, 4]: 16.3 | Acid Fl. mean score [1]: 10.6 | Artificial sweetness Fl. mean score [1]: 54.0 | Bitter Fl. mean score [1]: 20.7 | Liquorice FL mean score [1]: 18.0 | Overall Sweetness Fl. mean score [1]: 61.7 | Body/ thickness Mf. mean score [1]: 39.4 | Mouth coating Mf. mean score [1, 3]: 27.4 | Mouth drying Mf. mean score [1, 3]: 40.1 | Mouth watering Mf. mean score [1, 3]: 10.9 | Tingling Mf. mean score [1, 3]: 13.0 | Mouth coating Mf. mean score [1, 4]: 26.3 | Mouth drying Mf. mean score [1, 4]: 42.7 | Mouth watering Mf. mean score [1, 4]: 14.7 | Tingling Mf. mean score [1, 4]: 12.9 | sweetness build score compared with the yeast derived RebA sample ([1]; time to peak in sweetness intensity, 95% confidence level): significantly longer | Acidic (Flavor/Aftertaste) Score after 3 d sip (20 sec) [2]: 10 | Acidic (Flavor/Aftertaste) Score after 3 d sip (2 min) [2]: 10 | Acidic (Flavor/Aftertaste) Score after 3 d sip (immediate) [2]: 10 | Artificial sweetness (Flavor/Aftertaste) Score after 3 d sip (20 sec) [2]: 35 | Artificial sweetness (Flavor/Aftertaste) Score after 3 d sip (2 min) [2]: 20 | Artificial sweetness (Flavor/Aftertaste) Score after 3 d sip (immediate) [2]: 55 | Bitter (Flavor/Aftertaste) Score after 3 d sip (20 sec) [2]: 20 | Bitter (Flavor/Aftertaste) Score after 3 d sip (2 min) [2]: 20 | Bitter (Flavor/Aftertaste) Score after 3 d sip (immediate) [2]: 10 | Body/thickness (Mouthfeel) Score after 3 d sip (immediate) [2]: 40 | Liquorice (Flavor/Aftertaste) Score after 3 d sip (20 sec) [2]: 35 | Liquorice (Flavor/Aftertaste) Score after 3 d sip (2 min) [2]: 30 | Liquorice (Flavor/Aftertaste) Score after 3 d sip (immediate) [2]: 30 | Mouth coating (Mouthfeel) Score after 3 d sip (20 sec) [2]: 30 | Mouth coating (Mouthfeel) Score after 3 d sip (2 min) [2]: 30 | Mouth drying (Mouthfeel) Score after 3 d sip (20 sec) [2]: 35 | Mouth drying (Mouthfeel) Score after 3 d sip (2 min) [2]: 35 | Mouth watering (Mouthfeel) Score after 3 d sip (20 sec) [2]: 0 | Mouth watering (Mouthfeel) Score after 3 d sip (2 min) [2]: 20 | Overall Sweetness (Flavor/Aftertaste) Score after 3 d sip (20 sec) [2]: 50 | Overall Sweetness (Flavor/Aftertaste) Score after 3 d sip (2 min) [2]: 50 | Overall Sweetness (Flavor/Aftertaste) Score after 3 d sip (immediate) [2]: 70 | Sweetness build (Flavor) Score after 1st sip [2]: 30 | Sweetness onset (Flavor) Score after 1st sip [2]: 5 | Tingling (Mouthfeel) Score after 3 d sip (20 sec) [2]: 10 | Tingling (Mouthfeel) Score after 3 d sip (2 min) [2]: 5

C=C1C[C@@]23CC[C@H]4[C@@](C)(CCC[C@@]4(C)C(=O)O[C@@H]4O[C@H](CO)[C@@H](O)[C@H](O)[C@H]4O)[C@@H]2CC[C@]1(O[C@@H]1O[C@H](CO)[C@@H](O)[C@H](O[C@@H]2O[C@H](CO)[C@@H](O)[C@H](O)[C@H]2O)[C@H]1O[C@@H]1O[C@H](CO)[C@@H](O)[C@H](O)[C@H]1O)C3 [Yeast derived Reb A, rebaudioside A]
Sweetness build Fl. mean score [1]: 30.2 | Sweetness onset Fl. mean score [1]: 5.5 | Acid At. mean score [1, 3]: 6.9 | Artificial sweetness At. mean score [1, 3]: 33.8 | Bitter At. mean score [1, 3]: 17.2 | Overall Sweetness At. mean score [1, 3]: 49.6 | liquorice At. mean score [1, 3]: 19.2 | Acid At. mean score [1, 4]: 5.5 | Artificial sweetness At. mean score [1, 4]: 30.0 | Bitter At. mean score [1, 4]: 18.1 | Overall Sweetness At. mean score [1, 4]: 46.2 | liquorice At. mean score [1, 4]: 16.2 | artificial sweetness score compared with the commercial RebA sample ([1]; at 20 seconds): significantly less | bitter score compared with the commercial RebA sample ([1]; at 20 seconds, not statistically significantly different): lower | Acid Fl. mean score [1]: 8.3 | Artificial sweetness Fl. mean score [1]: 41.8 | Bitter Fl. mean score [1]: 11.8 | Liquorice FL mean score [1]: 17.2 | Overall Sweetness Fl. mean score [1]: 58.5 | Body/ thickness Mf. mean score [1]: 37.1 | Mouth coating Mf. mean score [1, 3]: 28.9 | Mouth drying Mf. mean score [1, 3]: 40.8 | Mouth watering Mf. mean score [1, 3]: 10.1 | Tingling Mf. mean score [1, 3]: 9.8 | Mouth coating Mf. mean score [1, 4]: 24.7 | Mouth drying Mf. mean score [1, 4]: 39.8 | Mouth watering Mf. mean score [1, 4]: 15.7 | Tingling Mf. mean score [1, 4]: 8.8 | off flavors ([1]; panellist reports): no reports of off flavors
